Results: patent publication US20120258929A1, “AGENT THAT MODULATES PHYSIOLOGICAL CONDITION OF PESTS, INVOLVED IN INSECT PEPTIDYL-DIPEPTIDASE A ACTIVITY” (SUMITOMO CHEMICAL COMPANY, LIMITED, priority 2005, published 2012)

Tests used:
[1] = biological target: aphid peptidyl-dipeptidase A (Aphis gossypii, UniProt A0A2K9Y4D7); experiment: Inhibition of aphid peptidyl-dipeptidase A activity, in vitro, substrate Abz-Gly-p-nitro-Phe-Pro-OH; type: biochemical, cotton aphid (Aphis gossypii); conditions: for Activity of inhibiting peptidyl-dipeptidase A activity (inhibition degree (%) at 10 μM addition) / inhibition at 10 µM: test compound in DMSO, final concentration 10 μM, relative to DMSO control; for inhibition at 10 µM: read-out: Activity of inhibiting peptidyl-dipeptidase A activity (inhibition degree (%) at 10 μM addition); for IC50: concentrations 100 to 0.03 μM, calculated with XL fit, read-out: Activity of inhibiting peptidyl-dipeptidase A activity IC50, (μM))
aphid peptidyl-dipeptidase A, sequence (A0A2K9Y4D7 entry or part of it): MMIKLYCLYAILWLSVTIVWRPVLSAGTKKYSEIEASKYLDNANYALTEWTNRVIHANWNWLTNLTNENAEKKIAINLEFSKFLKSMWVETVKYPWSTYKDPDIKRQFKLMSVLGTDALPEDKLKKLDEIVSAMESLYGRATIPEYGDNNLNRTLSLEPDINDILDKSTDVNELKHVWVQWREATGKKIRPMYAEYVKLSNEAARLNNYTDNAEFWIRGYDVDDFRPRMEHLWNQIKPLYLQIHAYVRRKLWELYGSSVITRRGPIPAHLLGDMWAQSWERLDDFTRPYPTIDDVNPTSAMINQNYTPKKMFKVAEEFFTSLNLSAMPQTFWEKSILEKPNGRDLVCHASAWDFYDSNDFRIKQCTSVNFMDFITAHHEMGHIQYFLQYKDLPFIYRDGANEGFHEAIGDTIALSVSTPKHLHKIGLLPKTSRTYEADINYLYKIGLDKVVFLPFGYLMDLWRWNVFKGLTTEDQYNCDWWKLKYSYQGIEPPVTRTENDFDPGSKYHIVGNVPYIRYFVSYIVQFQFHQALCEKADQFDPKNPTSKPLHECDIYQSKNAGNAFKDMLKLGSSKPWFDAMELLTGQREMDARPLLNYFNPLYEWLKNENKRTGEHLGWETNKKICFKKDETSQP
Description: Selection of a compound which modulates the activity of a peptidyl-dipeptidase A was performed in a system where the activity of a peptidyl-dipeptidase A which is modulated by adding a test compound to an in vitro reaction system using the aphid peptidyl-dipeptidase A prepared in Example 7 is measured and evaluated.
Measurement of the activity of the aphid peptidyl-dipeptidase A was performed according to a method using Abz-Gly-p-nitro-Phe-Pro-OH (manufactured by Bachem, M-1100) as a substrate, as described in the previously reported article (Carmel et al. (1979) Clinica Chimica Acta, 93, 215-220).
For measuring the activity, the activity of the aphid peptidyl-dipeptidase A was measured when a test compound dissolved in DMSO was contained to a final concentration of 10 μM. In addition, the activity of the aphid peptidyl-dipeptidase A was measured when DMSO was contained in place of a test compound. Then, a ratio (%) of a measured value of the activity of the aphid peptidyl-dipeptidase A when a test compound dissolved in DMSO was contained, relative to a measured value of the activity of aphid peptidyl-dipeptidase A when DMSO was contained in place of the test compound was calculated, and a value obtained by subtracting the calculated value from 100% was adopted as an inhibition degree (%).
The activity of aphid peptidyl-dipeptidase A was measured when a test compound dissolved in DMSO was contained to a final concentration of each concentration of 100 μM, 30 μM, 10 μM, 3 μM, 1 μM, 0.3 μM, 0.1 μM or 0.03 μM.

Aphis gossypil = experiment: Pesticidal activity test, artificial feed rearing, surviving aphids after six days; type: in vivo
Description: A sterilized artificial feed having the following composition (Table 3) was prepared. […] Controlling value (%)={1−(Cb×Tai)/(Cai×Tb)}×100 Letters in the equation represent the following meanings.

[2] = test compound dissolved in DMSO to a final concentration of 640 μM, added at 0.5% volume of artificial feed, significant controlling value (e.g. 30% or more) = pesticidal activity
[3] = test compound dissolved in DMSO to a final concentration of 50 ppm, otherwise as Example 9

Row | Compound | Activity of inhibiting peptidyl-dipeptidase A activity (inhibition degree (%) at 10 μM addition) [1] | Determination result of pesticidal activity (Aphis gossypil; [2]) | Determination result of pesticidal activity (Aphis gossypil; [3]) | inhibition at 10 µM [1] | IC50 [1] | Determination result of pesticidal activity (Aphis gossypil; […], significant controlling value (e.g. 30% or more) = pesticidal activity)
1 | CCN(CC)CCO[C@H]1CC[C@@]2(C)C(=CC[C@@H]3[C@@H]2CC[C@]2(C)C(=O)CC[C@@H]32)C1 [3-beta-[2-(diethylamino)ethoxy]androst-5-en-17-one] | 17% | Presence of pesticidal activity | – | – | – | –
2 | CC12CCC3c4ccc(O)cc4CCC3C1C/C(=C\c1ccc(OC(F)(F)F)cc1)C2=O (stereo not drawn) [DF15164] | – | – | Absence of pesticidal activity | – | – | –
3 | COC(=O)C(Cc1ccccc1)NC(=O)Nc1n[nH]c(=S)s1 (stereo not drawn) [MMP-2/MMP-3 inhibitor I] | – | Presence of pesticidal activity | – | 79% | – | –
4 | CCOC(=O)[C@H](CCc1ccccc1)N[C@H]1CCc2ccccc2N(CC(=O)O)C1=O [benazepril] | – | Presence of pesticidal activity | Presence of pesticidal activity | 41% | 15.9 µM | –
5 | C[C@H](CS)C(=O)N1CCC[C@H]1C(=O)O [captopril] | – | – | – | 99% | – | –
6 | CCOC(=O)[C@H](CCc1ccccc1)N[C@@H](C)C(=O)N1CCC[C@H]1C(=O)O [enalapril] | – | Presence of pesticidal activity | – | 98% | – | –
7 | CCOC(=O)[C@H](CCc1ccccc1)N[C@@H](C)C(=O)N1[C@H](C(=O)O)C[C@@H]2CCC[C@@H]21 [ramipril] | – | Presence of pesticidal activity | – | 16% | – | –
8 | quinapril | 15% | – | Presence of pesticidal activity | – | 35.8 µM | Presence of pesticidal activity
